Test results taken from paper PMC5746462 (Journal of medicinal chemistry, 2017).

Key:
[1] = male, Swiss Albino, mouse, in vivo, 10 mg/kg
in vivo = settings: male, Swiss Albino, mouse, po, 10 mg/kg

## CC(C)(C)n1nc(Oc2cccc(Cl)c2)c2c(N)ncnc21 [Compound 2]
[1]
  %F (oral availability): 31%
In vivo
  bioavailability: 25 to 30%
